Like-named read-outs stand apart in the source and are kept apart here.

The values below come from US20170008888A1 (KYORIN PHARMACEUTICAL CO., LTD., priority 2014, published 2017).

In one experiment the target is T1, BRDT (Homo sapiens, UniProt Q58F21).
T1 construct: read out by qPCR of the phage DNA
The experiment is described as follows: Bromodomain binding assay: BRDT. How it is done: (§1) T7 phage strains displaying bromodomains were grown in parallel in 24-well blocks in an E. coli host derived from the BL21 strain. E. coli were grown to log-phase and infected with T7 phage from a frozen stock (multiplicity of infection=0.4) and incubated with shaking at 32° C. until lysis (90-150 minutes). The lysates were centrifuged (5,000×g) and filtered (0.2 μm) to remove cell debris. […] The liganded beads were blocked with excess biotin and washed with blocking buffer (SeaBlock (Pierce), 1% BSA, 0.05 Tween 20, 1 mM DTT) to remove unbound ligand and to reduce non-specific phage binding. […] Test compounds (T62 and 46) were prepared as 1000× stocks in 100% DMSO and subsequently diluted 1:10 in monoethylene glycol (MEG) to create stocks at 100× the screening concentration (resulting stock solution is 10% DMSO/90% MEG). The compounds were then diluted directly into the assays such that the final concentration of DMSO and MEG were 0.1% and 0.9%, respectively. All reactions were performed in polystyrene 96-well plates in a final volume of 0.135 ml. […] The bromodomain concentration in the eluates was measured by qPCR. Compounds were assayed for binding activity against a panel of 40 bromodomain-containing proteins.

Another experiment concerns the target T2, SMARCA2 (Homo sapiens, UniProt P51531).
T2 construct: made in house; host or cells: E. coli host derived from the BL21 strain (T7 phage lysate)
The experiment is described as follows: Bromodomain binding assay: SMARCA2. How it is done:
as §1

In experiment [1] the test system is primary human corneal epithelial cells. The experiment is described as follows: Cytokine response in primary human corneal epithelial cells stimulated with IFNγ, IL-1β or IL-17A. Format: cell-based. The following applies: Corneal epithelial cell, 24 h, 5 μM compound. The protocol: Primary corneal epithelial cells were obtained from Life Technologies (Carlsbad, Calif.) and maintained in Keratinocyte-SFM media supplemented with EGF and bovine pituitary extract (Life Technologies). Cells were seeded at 1e5 cells/ml and incubated at 37° C. in a humidified atmosphere at 5% CO2 overnight to adhere. Cells were supplement-starved overnight in unsupplemented K-SFM media containing 0.5% BSA then treated with compound for 1 h at 37° C. in a humidified atmosphere at 5% CO2. DMSO at a final concentration of 0.1% served as the non-inhibited control. Cells were stimulated with 20 ng/ml of human recombinant IFNγ (R & D Systems, Minneapolis, Minn.), IL-1β (R & D Systems), or IL-17A (eBioscience, San Diego, Calif.) for 24 h. Supernatant was then collected and analyzed for cytokine concentrations using the Bio-Plex Pro Human Cytokine 17-Plex Panel (Bio-Rad Laboratories, Hercules, Calif.) according to the manufacturer's instructions. Magnetic beads were measured on the Bio-Plex MAGPIX multiplex reader instrument using the accompanying xPONENT 4.2 acquisition software (Bio-Rad Laboratories). Data were analyzed via the Bio-Plex Manager software v6.1 (Bio-Rad Laboratories).
Percent inhibition of cytokines in culture supernatant during 5 μM compound treatment of primary corneal epithelial cells. Shown below are data from a representative experiment.

The target of another experiment is T3, TRIM33 (Homo sapiens, UniProt Q9UPN9).
T3 construct: made in house; host or cells: E. coli host derived from the BL21 strain (T7 phage lysate)
T3 sequence (Q9UPN9 957-1080 limits assumed): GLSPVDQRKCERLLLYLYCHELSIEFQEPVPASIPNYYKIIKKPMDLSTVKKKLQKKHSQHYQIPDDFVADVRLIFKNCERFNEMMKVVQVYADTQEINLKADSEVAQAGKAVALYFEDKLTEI
The experiment is described as follows: Bromodomain binding assay: TRIM33. How it is done: as §1

The subject of experiment [2] is diseased primary human synovial fibroblasts. The experiment is described as follows: Cytokine response by primary human synovial fibroblasts stimulated with IL-17A, TNF-α or both. The format is cell-based. The following applies: Fibroblast, 48 h. How it is done:
Primary synovial fibroblasts isolated from the knee of a patient diagnosed with rheumatoid arthritis/osteoarthritis were obtained from Asterand (Detroit, Mich.) and maintained in FGM-2 fibroblast growth medium (Lonza, Allendale, N.J.). Cells were seeded at approximately 1.6e4 cells/ml and incubated at 37° C. in a humidified atmosphere at 5% CO2 until the cells reached ˜90% confluence. Cells were pre-treated with the test compounds (10 μM down by ⅕ in a 4-point serial dilution series) for 1 h at 37° C. in a humidified atmosphere at 5% CO2. DMSO at a final concentration of 0.1% served as the non-inhibited control. […] Cells were stimulated with 10 ng/ml human recombinant IL-17A (eBioscience, San Diego, Calif.), 10 ng/ml TNF-α, (Cell Signaling Technology, Danvers, Mass.) or both, for 48 h. Supernatant was then collected and analyzed for cytokine concentrations using the Bio-Plex Pro Human Cytokine 17-Plex Panel supplemented with RANTES and VEGF Singleplex analytes (Bio-Rad Laboratories, Hercules, Calif.) according to the manufacturer's instructions. Magnetic beads were measured on the Bio-Plex MAGPIX multiplex reader instrument using the accompanying xPONENT 4.2 acquisition software (Bio-Rad Laboratories). Data were analyzed via the Bio-Plex Manager software v6.1 (Bio-Rad Laboratories).

Where [3] appears, read: +20 ng/ml IFNγ, read-out: Percent inhibition of cytokine relative to DMSO controls, G-CSF.
[4] abbreviates: +20 ng/ml IFNγ, read-out: Percent inhibition of cytokine relative to DMSO controls, GM-CSF.
Setting [5] is: +20 ng/ml IFNγ, read-out: Percent inhibition of cytokine relative to DMSO controls, IL-6.
Where [6] appears, read: +20 ng/ml IFNγ, read-out: Percent inhibition of cytokine relative to DMSO controls, MCP-1.
Where [7] appears, read: +20 ng/ml IL-1β, read-out: Percent inhibition of cytokine relative to DMSO controls, G-CSF.
The mark [8] stands for this setting: +20 ng/ml IL-1β, read-out: Percent inhibition of cytokine relative to DMSO controls, GM-CSF.
[9] abbreviates: +20 ng/ml IL-1β, read-out: Percent inhibition of cytokine relative to DMSO controls, IL-6.
Where [10] appears, read: +20 ng/ml IL-1β, read-out: Percent inhibition of cytokine relative to DMSO controls, MCP-1.
[11] abbreviates: +20 ng/ml IL-17A, read-out: Percent inhibition of cytokine relative to DMSO controls, G-CSF.
Setting [12] is: +20 ng/ml IL-17A, read-out: Percent inhibition of cytokine relative to DMSO controls, GM-CSF.
The mark [13] stands for this setting: +20 ng/ml IL-17A, read-out: Percent inhibition of cytokine relative to DMSO controls, IL-6.
Where [14] appears, read: +20 ng/ml IL-17A, read-out: Percent inhibition of cytokine relative to DMSO controls, MCP-1.
[15] abbreviates: +Both IL-17A + TNF-α, read-out: EC50 (μM), G-CSF.
Where [16] appears, read: +Both IL-17A + TNF-α, read-out: EC50 (μM), IL-6.
Setting [17] is: +Both IL-17A + TNF-α, read-out: EC50 (μM), IL-8.
Where [18] appears, read: +Both IL-17A + TNF-α, read-out: EC50 (μM), RANTES.
Where [19] appears, read: +IL-17A 10 ng/ml, read-out: EC50 (μM), G-CSF.
[20] abbreviates: +IL-17A 10 ng/ml, read-out: EC50 (μM), IL-6.
The mark [21] stands for this setting: +IL-17A 10 ng/ml, read-out: EC50 (μM), IL-8.
Where [22] appears, read: +IL-17A 10 ng/ml, read-out: EC50 (μM), RANTES.
[23] abbreviates: +TNF-α 10 ng/ml, read-out: EC50 (μM), G-CSF.
Where [24] appears, read: +TNF-α 10 ng/ml, read-out: EC50 (μM), IL-6.
Setting [25] is: +TNF-α 10 ng/ml, read-out: EC50 (μM), IL-8.
The mark [26] stands for this setting: +TNF-α 10 ng/ml, read-out: EC50 (μM), RANTES.

T2 sequence (P51531 1378-1506 limits assumed): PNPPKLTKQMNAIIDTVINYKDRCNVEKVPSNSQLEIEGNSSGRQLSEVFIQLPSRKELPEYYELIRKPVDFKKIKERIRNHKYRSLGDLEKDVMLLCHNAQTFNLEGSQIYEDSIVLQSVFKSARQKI

Take `CCOc1cc(C(=O)N2CCC(N3CCCC3)CC2)ccc1Nc1cc2c(cn1)N(C)C(=O)c1ccccc1N2C` [Compound 46, 3-(2-Ethoxy-4-(4-(pyrrolidin-1-yl)piperidine-1-carbonyl)phenylamino)-5,11-dimethyl-5H-benzo[e]pyrido[3,4-b][1,4]diazepin-10(11H)-one]: the Kd at BRDT was 169 nM; at SMARCA2, more than 20 µM; at TRIM33 it was more than 20 µM. For the same compound, the inhibition at 5 µM in experiment [1] (setting [3]) is 42.1%; in experiment [1] (setting [4]), 30.4%; in experiment [1] (setting [5]) it was 84.4%; in experiment [1] (setting [6]), 93.4%; in experiment [1] (setting [7]) it was 86.3%; in experiment [1] (setting [8]) it was 97%. For the same compound, the inhibition at 5 µM in experiment [1] (setting [9]) was found to be 92.2%; in experiment [1] (setting [10]), 52.1%; in experiment [1] (setting [11]) it was 90.3%; in experiment [1] (setting [12]) it was 92.5%; in experiment [1] (setting [13]) it was 94.7%; in experiment [1] (setting [14]), 42.7%.
For the compound `CCOc1cc(C(=O)N2CCC(N3CCN(C)CC3)CC2)ccc1Nc1cc2c(cn1)N(C)C(=O)c1ccccc1N2C` [Compound 61], the EC50 was more than 10 µM in experiment [2] (setting [15]); more than 10 µM in experiment [2] (setting [16]); more than 10 µM in experiment [2] (setting [17]); 1.35 µM in experiment [2] (setting [18]); 2.59 µM in experiment [2] (setting [19]); 1.67 µM in experiment [2] (setting [20]). The EC50 is 0.87 µM in experiment [2] (setting [21]); more than 10 µM in experiment [2] (setting [22]); 1.27 µM in experiment [2] (setting [23]); 1.05 µM in experiment [2] (setting [24]); 4.51 µM in experiment [2] (setting [25]); 2.78 µM in experiment [2] (setting [26]).
Take `CCOc1cc(C(=O)N2CC[C@@H](N(C)C)C2)ccc1Nc1cc2c(cn1)N(C)C(=O)c1ccccc1N2C` [Compound 115]: the EC50 is more than 10 µM in experiment [2] (setting [15]); more than 10 µM in experiment [2] (setting [16]); more than 10 µM in experiment [2] (setting [17]); 1.88 µM in experiment [2] (setting [18]); 2.67 µM in experiment [2] (setting [19]); 1.04 µM in experiment [2] (setting [20]). For the same compound, the EC50 was 0.39 µM in experiment [2] (setting [21]); more than 10 µM in experiment [2] (setting [22]); 1.25 µM in experiment [2] (setting [23]); 1.71 µM in experiment [2] (setting [24]); more than 10 µM in experiment [2] (setting [25]); more than 10 µM in experiment [2] (setting [26]).
With `CCOc1cc(C(=O)N[C@H]2CC[C@H](O)CC2)ccc1Nc1cc2c(cn1)N(C)C(=O)c1ccccc1N2C` [Compound T62], the Kd on BRDT is 397 nM; at SMARCA2, more than 20 µM; on TRIM33, more than 20 µM. The inhibition at 5 µM in experiment [1] (setting [3]) came out at 28%; in experiment [1] (setting [4]) it was 25.4%; in experiment [1] (setting [5]) it was 67.9%; in experiment [1] (setting [6]) it was 89.5%; in experiment [1] (setting [7]) it was 89.3%; in experiment [1] (setting [8]) it was 97.1%. Also, the inhibition at 5 µM in experiment [1] (setting [9]) worked out at 88.7%; in experiment [1] (setting [10]), 58%; in experiment [1] (setting [11]), 86.4%; in experiment [1] (setting [12]) it was 89.7%; in experiment [1] (setting [13]) it was 89.6%; in experiment [1] (setting [14]) it was 36%.
